Measured values reported in publication PMC7345905, “Microbial Metabolite Urolithin B Inhibits Recombinant Human Monoamine Oxidase A Enzyme” (Metabolites, 2020).
“And” between values parts separate entries of the source, which are not always exact repeats. Identical values can stand only once.

Target: T1, human recombinant MAO-A (Homo sapiens, UniProt P21397)
T1 construct: purchased Sigma-Aldrich
T1 sequence (P21397 1-527): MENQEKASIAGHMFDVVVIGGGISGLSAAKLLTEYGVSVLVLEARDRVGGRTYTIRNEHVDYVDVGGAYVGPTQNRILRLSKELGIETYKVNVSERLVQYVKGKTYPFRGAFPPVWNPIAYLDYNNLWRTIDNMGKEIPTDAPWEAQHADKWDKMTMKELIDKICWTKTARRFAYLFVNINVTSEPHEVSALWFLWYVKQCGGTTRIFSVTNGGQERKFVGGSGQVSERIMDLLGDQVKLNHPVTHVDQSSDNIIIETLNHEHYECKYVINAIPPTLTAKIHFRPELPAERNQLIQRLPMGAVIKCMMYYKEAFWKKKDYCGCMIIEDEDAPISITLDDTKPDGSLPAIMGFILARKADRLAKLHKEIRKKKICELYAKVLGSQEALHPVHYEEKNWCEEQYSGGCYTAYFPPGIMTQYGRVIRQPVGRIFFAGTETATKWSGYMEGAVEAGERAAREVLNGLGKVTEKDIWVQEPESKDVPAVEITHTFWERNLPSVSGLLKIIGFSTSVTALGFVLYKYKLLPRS
Test: MAO-A inhibition kinetics (variable substrate, Lineweaver–Burk plot)
Assay type: biochemical
Set-up: Michaelis-Menten best-fit Vmax of MAO-A / Michaelis-Menten best-fit Vmax of MAO-A, Average: unit not given here
Conditions: for MAO-A assay signal (luminescence) / Transformed (reciprocal of MAO-A assay signal) / Michaelis-Menten best-fit Vmax of MAO-A: N=1-3
Description: MAO inhibition assays were performed using a MAO-Glo™ Assay kit (Promega) according to the manufacturer’s instructions. Briefly, 1 µg of human recombinant MAO-A and MAO-B enzyme isoforms were incubated with 160 and 16 µM of MAO substrates, respectively. […] The enzyme reaction was quenched by the addition of a luciferin detection reagent. […] An equal volume of dimethyl sulfoxide (0.1%) was added to the enzyme assay as a control. After 1 h of incubation, the luminescence was measured with a multimode microplate reader (Synergy HT, BioTek, Winooski, VT, USA) to determine the MAO enzyme activities. Initially, the inhibition potential of all the test compounds was evaluated at a concentration of 100 μM. The control reaction (with no inhibitor) with vehicle (DMSO 0.1%) was set at 100% activity. To determine IC50 of the test compounds, the dose dependent enzyme assays were performed. We used range of 0.1 to 50 μM concentrations for MAO-A and 0.1 to 200 μM concentrations of test compounds for the MAO-B enzyme activities. The type of enzyme inhibition was determined using variable concentrations of MAO-A substrate (10–360 µM) and MAO-B substrate (2–64 µM) for the respective enzyme assay. […] A Lineweaver–Burk double reciprocal plot was generated, and the mode of inhibition was determined by visual examination of the plot. The slope of the reciprocal plots was plotted against the inhibitor concentrations and determined the x-axis intercept that represented the inhibitor constant, Ki value.
All experiments were performed in triplicates and data are presented as mean ± standard error of the mean (SEM). The raw data are provided in Supplementary Data, Table S1. Enzyme kinetic data were analyzed using the Lineweaver–Burk plot. Statistical analysis was performed by Student’s t-test using GraphPad Prism Ver. 7.0 (GraphPad Prism Software Inc., San Diego, CA, USA).

[1] = UroC 15 µM, MAO-A substrate 10 uM
[2] = UroC 15 µM, MAO-A substrate 20 uM
[3] = UroC 15 µM, MAO-A substrate 40 uM
[4] = UroC 15 µM, MAO-A substrate 80 uM
[5] = UroC 15 µM, MAO-A substrate 160 uM
[6] = UroC 15 µM, MAO-A substrate 320 uM
[7] = UroC 60 µM, MAO-A substrate 10 uM
[8] = UroC 60 µM, MAO-A substrate 20 uM
[9] = UroC 60 µM, MAO-A substrate 40 uM
[10] = UroC 60 µM, MAO-A substrate 80 uM
[11] = UroC 60 µM, MAO-A substrate 160 uM
[12] = UroC 60 µM, MAO-A substrate 320 uM

Q: Which results are given for `O=c1oc2cc(O)ccc2c2cc(O)c(O)cc12` [UC, urolithin-C]?
A: mode of inhibition of MAO-A (Lineweaver–Burk plot): mixed mode of inhibition; MAO-A assay signal (luminescence), Average [1]: 1825; MAO-A assay signal (luminescence) [1]: 1969 and 1718 and 1788; MAO-A assay signal (luminescence), Average [2]: 3291; MAO-A assay signal (luminescence) [2]: 3541 and 3116 and 3216; MAO-A assay signal (luminescence), Average [3]: 5930.67; MAO-A assay signal (luminescence) [3]: 6537 and 5679 and 5576; MAO-A assay signal (luminescence), Average [4]: 11350.3; MAO-A assay signal (luminescence) [4]: 12348 and 10938 and 10765; MAO-A assay signal (luminescence), Average [5]: 17552.3; MAO-A assay signal (luminescence) [5]: 18484 and 16889 and 17284; MAO-A assay signal (luminescence), Average [6]: 26455.7; MAO-A assay signal (luminescence) [6]: 27220 and 26215 and 25932; Transformed (reciprocal of MAO-A assay signal), Average (UroC 15 µM, [1/S] 0.003125): 3.78e-5; Transformed (reciprocal of MAO-A assay signal) (UroC 15 µM, [1/S] 0.003125): 3.674e-5 and 3.815e-5 and 3.856e-5; Transformed (reciprocal of MAO-A assay signal), Average (UroC 15 µM, [1/S] 0.00625): 5.697e-5; Transformed (reciprocal of MAO-A assay signal) (UroC 15 µM, [1/S] 0.00625): 5.41e-5 and 5.921e-5 and 5.7857e-5; Transformed (reciprocal of MAO-A assay signal), Average (UroC 15 µM, [1/S] 0.0125): 8.81e-5; Transformed (reciprocal of MAO-A assay signal) (UroC 15 µM, [1/S] 0.0125): 8.098e-5 and 9.142e-5 and 9.289e-5; Transformed (reciprocal of MAO-A assay signal), Average (UroC 15 µM, [1/S] 0.025): 0.0001686; Transformed (reciprocal of MAO-A assay signal) (UroC 15 µM, [1/S] 0.025): 0.000153 and 0.0001761 and 0.0001793; Transformed (reciprocal of MAO-A assay signal), Average (UroC 15 µM, [1/S] 0.05): 0.0003039; Transformed (reciprocal of MAO-A assay signal) (UroC 15 µM, [1/S] 0.05): 0.0002824 and 0.0003209 and 0.0003109; Transformed (reciprocal of MAO-A assay signal), Average (UroC 15 µM, [1/S] 0.1): 0.0005479; Transformed (reciprocal of MAO-A assay signal) (UroC 15 µM, [1/S] 0.1): 0.0005079 and 0.0005821 and 0.0005593; MAO-A assay signal (luminescence), Average [7]: 728; MAO-A assay signal (luminescence) [7]: 706 and 793 and 685; MAO-A assay signal (luminescence), Average [8]: 1221; MAO-A assay signal (luminescence) [8]: 1198 and 1213 and 1252; MAO-A assay signal (luminescence), Average [9]: 2305.33; MAO-A assay signal (luminescence) [9]: 2310 and 2236 and 2370; MAO-A assay signal (luminescence), Average [10]: 4337.33; MAO-A assay signal (luminescence) [10]: 4338 and 4394 and 4280; MAO-A assay signal (luminescence), Average [11]: 8033.33; MAO-A assay signal (luminescence) [11]: 7953 and 7801 and 8346; MAO-A assay signal (luminescence), Average [12]: 14867.3; MAO-A assay signal (luminescence) [12]: 14760 and 14941 and 14901; Transformed (reciprocal of MAO-A assay signal), Average (UroC 60 µM, [1/S] 0.003125): 6.726e-5; Transformed (reciprocal of MAO-A assay signal) (UroC 60 µM, [1/S] 0.003125): 6.775e-5 and 6.693e-5 and 6.711e-5; Transformed (reciprocal of MAO-A assay signal), Average (UroC 60 µM, [1/S] 0.00625): 0.0001245; Transformed (reciprocal of MAO-A assay signal) (UroC 60 µM, [1/S] 0.00625): 0.0001257 and 0.0001282 and 0.0001198; Transformed (reciprocal of MAO-A assay signal), Average (UroC 60 µM, [1/S] 0.0125): 0.0002306; Transformed (reciprocal of MAO-A assay signal) (UroC 60 µM, [1/S] 0.0125): 0.0002305 and 0.0002276 and 0.0002336; Transformed (reciprocal of MAO-A assay signal), Average (UroC 60 µM, [1/S] 0.025): 0.0004338; Transformed (reciprocal of MAO-A assay signal) (UroC 60 µM, [1/S] 0.025): 0.0004329 and 0.0004472 and 0.0004219; Transformed (reciprocal of MAO-A assay signal), Average (UroC 60 µM, [1/S] 0.05): 0.000819; Transformed (reciprocal of MAO-A assay signal) (UroC 60 µM, [1/S] 0.05): 0.0008347 and 0.0008244 and 0.0007987; Transformed (reciprocal of MAO-A assay signal), Average (UroC 60 µM, [1/S] 0.1): 0.001374; Transformed (reciprocal of MAO-A assay signal) (UroC 60 µM, [1/S] 0.1): 0.001416 and 0.001261 and 0.00146; Michaelis-Menten best-fit Vmax of MAO-A, Average (in presence of UroC 15 uM): 50085; Michaelis-Menten best-fit Vmax of MAO-A (in presence of UroC 15 uM): 47688 and 52039 and 50528; Michaelis-Menten best-fit Vmax of MAO-A, Average (in presence of UroC 60 uM): 82346; Michaelis-Menten best-fit Vmax of MAO-A (in presence of UroC 60 uM): 96239 and 71263 and 79536; Ki (x-axis intercept of slopes of Lineweaver–Burk plots vs inhibitor concentration): 44.3 µM
